Test systems include RPMI-8226 leukemia; HL-60(TB) leukemia; ACHN renal; PC-3 prostate; K-562 leukemia; OVCAR-8 ovarian; IGROV1 ovarian; SK-MEL-5 melanoma; A498 renal; RXF 393 renal; 786-0 renal.
Holding throughout (assay): NCI tumour cell line growth inhibition, 48 h

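How tested: cells in 96-well plates exposed to compound for 48 hours at five concentrations. TGI marks complete inhibition of growth.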

For `N#CS/C(C(Cl)=C(Cl)Cl)=C(/Cl)[N+](=O)[O-]`, the TGI with RPMI-8226 leukemia is 4.25 µM; with HL-60(TB) leukemia, 0.512 µM; in the experiment on ACHN renal it was 3.1 µM; with PC-3 prostate, 9.79 µM; with K-562 leukemia, 1.62 µM; with OVCAR-8 ovarian, 3.49 µM. For the same compound, the TGI with IGROV1 ovarian came to 5.63 µM; in the experiment on SK-MEL-5 melanoma it was 6.37 µM; with A498 renal it was 38.2 µM; with RXF 393 renal, 2.98 µM.
As to `COc1cc2c(cc1C)NC(=O)/C2=C/c1c(Cl)[nH]c2cc(C)c(OC)cc12`, the TGI in the experiment on RPMI-8226 leukemia was above 48.9 µM; in the experiment on HL-60(TB) leukemia, 3.39 µM; with 786-0 renal, 18.2 µM; with ACHN renal, 18.4 µM; with PC-3 prostate it was 21.7 µM; in the experiment with K-562 leukemia, above 41.6 µM. Besides, the TGI in the experiment on OVCAR-8 ovarian is 24.1 µM; in the experiment with IGROV1 ovarian it was 16.1 µM; with SK-MEL-5 melanoma, 10.6 µM; in the experiment with A498 renal, 23.1 µM; with RXF 393 renal, 22.1 µM.
For `C=CCN1CCC(OC(=O)C(O)(/C=C\CC)C2CCCC2)CC1` (stereo not drawn), the TGI in the experiment on RPMI-8226 leukemia, with HL-60(TB) leukemia, in the experiment with 786-0 renal, with ACHN renal, with PC-3 prostate and with K-562 leukemia was above 100 µM throughout. Also, the TGI in the experiment with OVCAR-8 ovarian, in the experiment on IGROV1 ovarian, with SK-MEL-5 melanoma, with A498 renal and in the experiment with RXF 393 renal was above 100 µM throughout.
With `COc1ccc(C2CCc3nc4nc(N)nc(N)c4cc3C2)cc1` (stereo not drawn), the TGI with RPMI-8226 leukemia is above 100 µM; with HL-60(TB) leukemia, above 100 µM; in the experiment with 786-0 renal it was 17 µM; in the experiment with ACHN renal it was 22 µM; in the experiment on PC-3 prostate, above 100 µM; with K-562 leukemia, above 100 µM. Besides, the TGI in the experiment on OVCAR-8 ovarian is 22.5 µM; in the experiment with IGROV1 ovarian it was 37.9 µM; with SK-MEL-5 melanoma it was above 100 µM; with A498 renal, 77.1 µM; in the experiment on RXF 393 renal, 37.2 µM.
As for `N#CC12COC3(CCCCC3C1(C#N)C#N)OC2=N` (stereo not drawn), the TGI in the experiment on 786-0 renal was above 100 µM; with ACHN renal it was 30.1 µM; with PC-3 prostate it was 27.3 µM; in the experiment with K-562 leukemia, above 100 µM; in the experiment with IGROV1 ovarian, 27.7 µM; in the experiment on SK-MEL-5 melanoma, 23.5 µM. The TGI in the experiment on A498 renal was determined as 39.3 µM; in the experiment on RXF 393 renal, 25.8 µM.
As for `CSC1=N/C(=C\c2cccs2)C(=O)N1CN1CCOCC1`, the TGI with RPMI-8226 leukemia, with HL-60(TB) leukemia, with 786-0 renal, with ACHN renal, with PC-3 prostate and with K-562 leukemia was above 100 µM in each case. In addition, the TGI in the experiment on OVCAR-8 ovarian, in the experiment on IGROV1 ovarian, in the experiment with SK-MEL-5 melanoma and in the experiment with A498 renal was above 100 µM each time.
Regarding `C1CNCCN2CCCNCCN(C1)CC2`, the TGI with RPMI-8226 leukemia, with 786-0 renal, with ACHN renal, with PC-3 prostate, with OVCAR-8 ovarian and in the experiment with IGROV1 ovarian was above 100 µM in each case. Moreover, the TGI in the experiment with SK-MEL-5 melanoma, in the experiment on A498 renal and in the experiment on RXF 393 renal was above 100 µM each time.
For the compound `C=C1c2nc3ccccc3n2C=C(c2ccc(Cl)cc2)N1c1ccc(OCCN2CCOCC2)cc1`, the TGI was 10.9 µM in the experiment with RPMI-8226 leukemia; 35 µM in the experiment on HL-60(TB) leukemia; above 100 µM with 786-0 renal; above 100 µM in the experiment with ACHN renal; above 100 µM with PC-3 prostate; above 100 µM in the experiment on K-562 leukemia. The TGI with IGROV1 ovarian was above 100 µM; in the experiment with SK-MEL-5 melanoma, 71.5 µM; in the experiment on A498 renal, above 100 µM; with RXF 393 renal, above 100 µM.
Consider `O=C(N=Nc1ccc([N+](=O)[O-])cc1)NNc1ccc([N+](=O)[O-])cc1`, for which the TGI with RPMI-8226 leukemia was found to be 58.2 µM; with HL-60(TB) leukemia, 46.9 µM; in the experiment on 786-0 renal, 27 µM; in the experiment on ACHN renal, 38.8 µM; in the experiment on PC-3 prostate it was 52 µM; with K-562 leukemia it was 45.8 µM. The TGI with OVCAR-8 ovarian turned out to be 41.9 µM; in the experiment with IGROV1 ovarian, 26.8 µM; in the experiment with SK-MEL-5 melanoma it was 31.2 µM; in the experiment on A498 renal, 26.6 µM.
On to `COC(=O)C12CCC(C(=O)OC)(Cc3c(c4ccccc4n3S(=O)(=O)c3ccccc3)C1)C2=O` (stereo not drawn), for which the TGI was above 100 µM in the experiment on RPMI-8226 leukemia; above 69.6 µM in the experiment on 786-0 renal; above 100 µM in the experiment on ACHN renal; above 100 µM with PC-3 prostate; above 100 µM with K-562 leukemia; above 100 µM with OVCAR-8 ovarian. Further, the TGI was above 100 µM in the experiment with IGROV1 ovarian, above 100 µM in the experiment with SK-MEL-5 melanoma, above 100 µM in the experiment on A498 renal and 24.1 µM with RXF 393 renal.
On to `CCOC(=O)C(SCCO)C(C(=O)OCC)n1ccc(N)nc1=O` (stereo not drawn), for which the TGI with RPMI-8226 leukemia, in the experiment on HL-60(TB) leukemia, in the experiment with 786-0 renal, with ACHN renal, with PC-3 prostate and with K-562 leukemia was above 100 µM throughout. Further, the TGI in the experiment on OVCAR-8 ovarian, in the experiment on IGROV1 ovarian, with SK-MEL-5 melanoma and with A498 renal was above 100 µM throughout.
`C/C(Cl)=N\OC(=O)Nc1ccc([N+](=O)[O-])cc1`: the TGI was determined as 4.09 µM in the experiment with HL-60(TB) leukemia; 18.4 µM in the experiment on 786-0 renal; 9.2 µM in the experiment with ACHN renal; 29.9 µM in the experiment with PC-3 prostate; 4.22 µM in the experiment with K-562 leukemia; 32.2 µM in the experiment on OVCAR-8 ovarian. For the same compound, the TGI in the experiment with IGROV1 ovarian stood at 38.5 µM; in the experiment with SK-MEL-5 melanoma it was 31.2 µM; with A498 renal it was 30.5 µM; in the experiment with RXF 393 renal, 30.4 µM.
`Nn1c(CNc2ccc(-c3nnc(Nc4ccc(Cl)cc4)n3N)cc2)nnc1Nc1ccc(Cl)cc1`: the TGI in the experiment on RPMI-8226 leukemia, in the experiment on 786-0 renal, with ACHN renal, in the experiment with PC-3 prostate, with K-562 leukemia and in the experiment on IGROV1 ovarian was above 100 µM each time. The TGI with SK-MEL-5 melanoma, in the experiment with A498 renal and with RXF 393 renal was above 100 µM throughout.
For `CC1=CC(c2ccccc2)OP1(=O)c1ccccc1` (stereo not drawn), the TGI in the experiment on HL-60(TB) leukemia, with 786-0 renal, in the experiment on ACHN renal, with PC-3 prostate, in the experiment on K-562 leukemia and in the experiment with OVCAR-8 ovarian was above 100 µM each time. The TGI in the experiment on IGROV1 ovarian, in the experiment on SK-MEL-5 melanoma and in the experiment on A498 renal was above 100 µM each time.

For the origin of these results see PubChem BioAssay (NCI).
